Assay results as given in US12661308B2, “Antimicrobial AZO compounds and uses thereof” (The Regents Of The University Of Colorado, A Body Corporate, priority 2019, dated 2026).
“Also recorded” adds a separate entry of the source.

Legend:
[1] = test system: S. mutans biofilm; experiment: Live-dead stain microscopy of S. mutans biofilms (Example 4); format: cell-based, Streptococcus mutans
Experimental: Microscope images were obtained using a Zeiss digital microscope at 6300× magnification using the FITC and CY3 channels. Following biofilm growth, the substrates were placed in a solution of live-dead stains (Invitrogen BacLight™) containing 1.5 μL Component A (SYTO® 9, green fluorescent nucleic acid stain) and 1.5 μL Component B (propidium iodide, red fluorescent nucleic acid stain) in 200 μL of sterile water. The substrates were soaked for 3 min, then gently washed in sterile water for 10 s, dried, and fixed to a glass slide prior to imaging.

[2] = test system: Methicillin-susceptible S. aureus biofilm; experiment: Biofilm growth study, S. aureus; format: cell-based, Staphylococcus aureus; conditions: 50 mg/mL coated substrate, 24 h time-period
Experimental: Methicillin-susceptible S. aureus biofilms were grown from a 20 h BHI liquid culture inoculated with an S. aureus colony. The liquid culture was diluted 10^3 to a stock solution in BHI, then diluted 1:10 in BHI media containing 0.4 wt. % glucose in a 96-well plate. The plate was incubated in the dark at 37 ° C. for 24 h.
(§1) Following biofilm growth in the 96-well plate, the substrates were aseptically removed from the 96-well plate and placed in a vial containing 5 mL of 1× PBS solution. The vials were sonicated in a water bath for 10 min at 45° C., and the wells that previously contained the substrates were briefly sonicated using a probe sonicator (3 W RMS output) for 10 s per well. 200 μL aliquots of the sonicated PBS solution were placed in a 96-well plate and diluted 1:10 in each subsequent row. 20 μL aliquots of the sonicated media wells were placed in a 96-well plate containing 180 μL of PBS solution and diluted 1:10 in each subsequent row. Each column was then plated at a volume of 10 μL on a BHI agar plate in triplicate. The plates were then incubated at 37° C. and 5% CO2 for 48 h. The CFUs on each plate were counted in order to quantify the amount of biofilm remaining on the surface of the substrate and the bacteria remaining in the media after the removal of the substrate using the following equations: […]

[3] = test system: S. mutans (ATCC 25175) biofilm; experiment: Detachment study of S. mutans biofilm on monomer-coated polymeric substrates (Example 1); format: cell-based, Streptococcus mutans
Experimental: The polymeric substrates were prepared by mixing 54 wt % methyl methacrylate (MMA), 30 wt % polymethylmethacrylate (PMMA, MW ˜35 k), and 16 wt % tetraethylene glycol dimethacrylate (TEGDMA) at 70° C. for 2 hr. After mixing, 1 wt. % azobisisobutyronitrile (AIBN) was added to the formulation as an initiator and mixed.
The mixed formulation was added to circular molds (diameter=6.5 mm) cut from a strip of rubber (thickness=0.9 mm) and pressed between two glass microscope slides. The mold was clamped together and thermally cured at 80° C. for 1.5 hr.
The polymeric substrates were coated as follows. Coating solutions were prepared having the following monomer concentrations (see FIG. 3 for structures of the monomers): 0.5 mg/mL and 50 mg/mL solutions of a phenolic acrylated azobenzene monomer (OH-AAZO), 50 mg/mL acrylated azobenzene monomer (AAZO), 50 mg/mL 4-hydroxyl benzylacrylate (HBA), 50 mg/mL 2-hydroxylethyl methacrylate (HEMA).
The coating solutions included the monomer in N,N′-dimethylformamide (DMF) along with 0.5 mg/mL of AIBN and 0.1 mg/mL of Rhodamine B as an indicator dye. Once mixed, 3 μL of each coating solution was pipetted onto one side of the polymeric substrate and spun at 1000 RPM for 1 min followed by spinning at 6000 RPM for 3 s. The coating was cured under a nail lamp (Melody Susie UV Gel Nail Polish Dryer, Model DR-301C) for at least 15 min before repeating the coating procedure on the other side.
The controlled growth of biofilms varied depending on the bacteria strain. In the case of S. mutans, a BHI agar plate was streaked with S. mutans (ATCC 25175) and allowed to incubate at 37° C. in 5% CO2 for 60 hr to isolate a single bacterial colony. The colony was inoculated in 5 mL of BHI and allowed to incubate statically in the 5% CO2 incubator for 24 hr. The stock solution was diluted 1:50 in a 96-well plate containing the substrates of interest and allowed to incubate in the 5% CO2 incubator for an additional 24 hr.
The detachment study quantified the biofilm grown on each substrate via a series of washes in 1×PBS. The substrate was irradiated using a dental lamp (FlashMax P3 Ortho™, 1900 mW/cm2, wavelength=450-470 nm) on the underside of the vial for a total of ten 3 s irradiations per side. Following the series of washes, the substrate was sonicated for 10 min to remove the residual biofilm on the substrate. The wash solutions were serial diluted, plated, and grown at 37° C. and 5% CO2 to obtain the CFU count.
Images collected from a digital microscope (Zeiss Axioplan II microscope, 630×, step size 0.1 μm) after the substrate and bacteria were treated with BACLIGHT Live/Dead stain are included in FIG. 4.

[4] = test system: E. coli biofilm; experiment: Biofilm growth study, E. coli; format: cell-based, Escherichia coli; conditions: 50 mg/mL coated substrate, 24 h time-period
Experimental: E. coli biofilms were grown from a 20 h BHI inoculated with an E. coli colony. The liquid culture was diluted 10^3 to a stock solution in BHI, then diluted 1:10 in BHI media in a 96-well plate. The plate was incubated in the dark at 37° C. for 24 h.
as §1

[5] = test system: S. mutans biofilm; experiment: S. mutans biofilm growth on coated pit and fissure dental sealants; format: cell-based, Streptococcus mutans; conditions: coating on pit and fissure sealants
Excerpt: In some implementations, the azobenzene polymers can be used as an antimicrobial coating on pit and fissure dental sealants. […] Azobenzene coatings can be incorporated into pit and fissure sealants as an anti-bacterial coating to prevent tooth decay.

C=CC(=O)Oc1ccccc1/N=N/c1ccccc1O [OH-AAZO, phenolic acrylated azobenzene]
live and dead bacteria on substrate, live-dead stain ([1]; 1.5% OH-AAZO bulk substrate, 24 h): high amounts of dead bacteria (lighter) and little to no live bacteria; also recorded: did not grow | live and dead bacteria on substrate, live-dead stain ([1]; 2% OH-AAZO bulk substrate, 24 h): high amounts of dead bacteria (lighter) and little to no live bacteria; also recorded: did not grow | live and dead bacteria on substrate, live-dead stain ([1]; coated substrate, 24 h biofilm growth, compared to uncoated control): high amounts of dead bacteria (lighter) and little to no live bacteria | antibacterial effect on S. aureus biofilm (CFUs) [2]: no discernable antibacterial effect or reduction in CFUs | antibacterial effect against S. mutans ([3]; 0.5 mg/mL coating solution, compared with 50 mg/mL coating): did not result in the same antibacterial effect | S. mutans growth on the surface of the coated substrate ([3]; 50 mg/mL coating, even prior to light/wash treatment): no growth at all | S. mutans biofilm on substrate, Live/Dead stain microscopy ([3]; prior to wash/light treatment): comparatively very little biofilm | antibacterial effect on E. coli biofilm (CFUs) [4]: no discernable antibacterial effect or reduction in CFUs | S. mutans biofilm growth [5]: absent
